According to patent US20260217686A1, “N-Myristoyltransferase Inhibitors And Methods Of Use” (Seattle Children's Hospital (d/b/a Seattle Children's …, priority 2022, published 2026):
Where two headings read alike, the source gives them in different places.

Tests used:
[1] = test system: P. falciparum NF54 ring-stage parasites; assay: P. falciparum blood stage assay (SYBR Green parasite DNA); format: cell-based; details: Plasmodium falciparum, NF54, 72 h; read-out: blood stage Pf NF54 IC50
Experimental: To assess whether any of the NMTis developed here could qualify as TCP-1 candidates, the effect of each compound on blood-stage P. falciparum parasites was assessed, as there is currently no well-established in vitro platform for screening P. vivax blood-stage parasites. Synchronized P. falciparum NF54 ring stage parasites were treated for 72 h with each compound at various concentrations, ranging from 0.625 μM to 10 μM, and parasite DNA replication was measured using a fluorescent DNA binding dye (SYBR Green).
Sorbitol-synchronized P. falciparum NF54 ring-stage parasites were cultured at a parasitemia of 0.5% and hematocrit of 1.5% in a 96-well microtiter plate. […] Direct lysis of the blood cells to release the parasite DNA was performed by adding 100 μL of LBS buffer containing SYBR green I DNA binding dye to each well. Plates were incubated at-20° C. overnight for complete lysis and fluorescence was measured at 485 nm (excitation) and 528 nm (emission). ICEstimator regression analysis (antimalarial-icestimator dot net) was used to obtain relative IC50 values for each compound.

[2] = test system: P. vivax liver stage schizonts; assay: P. vivax liver stage assay in primary human hepatocytes, schizonts; details: Plasmodium vivax, Hepatocyte, read-out: liver stage Pv schizonts IC50 (μM)
Experimental: P. vivax sporozoites were obtained from three independent patient isolates. Liver stage infections were cultured in primary human hepatocytes from a single donor lot using a 384-well microculture system as described previously. Cells were infected and treated with NMTis at 20 μM beginning day 5 post-infection until day 8 when the infection rates were quantified via fluorescent microscopy. […] Accordingly, dose-response curves of all the shortlisted NMTis on parasite isolates 3 and 4 were applied over concentrations up to 20 μM (FIGS. 4C and D).
Plasmodium vivax liver stage assays were performed as described previously. Briefly, 384-well plates were seeded with primary hepatocytes from a single donor lot at a density of 25,000 cells per well. The hepatocytes were then infected with 14,000 freshly hand-dissected sporozoites per well. Cells were exposed to the compounds at indicated concentrations from day 3 post-infection, then proceeded to feed cultures every day, replacing the compounds until day 8 post-infection. Cells were fixed with 4% PFA and stained with PvUIS4 antibodies to detect schizonts and hypnozoites forms by confocal microscopy. The images were processed and analyzed using IMARIS (Bitplane Inc.) image analysis software.

P. vivax hypnozoites = assay: P. vivax liver stage assay in primary human hepatocytes, hypnozoites; format: cell-based; details: Plasmodium vivax, Hepatocyte; for IC50: 8 dpi, primary human hepatocytes, read-out: liver stage Pv hypnozoites IC50
Experimental: Finally, the NMT-binding compounds were evaluated against non-developing P. vivax hypnozoites. […] .

HsNMT1 = target: T1, HsNMT1 (Homo sapiens, UniProt P30419); assay: NMT activity assay (CPM detection of free CoA), human NMT; format: biochemical; details: read-out: HsNMT IC50 (nM)*
T1 construct: made in house
T1 sequence (P30419 1-496): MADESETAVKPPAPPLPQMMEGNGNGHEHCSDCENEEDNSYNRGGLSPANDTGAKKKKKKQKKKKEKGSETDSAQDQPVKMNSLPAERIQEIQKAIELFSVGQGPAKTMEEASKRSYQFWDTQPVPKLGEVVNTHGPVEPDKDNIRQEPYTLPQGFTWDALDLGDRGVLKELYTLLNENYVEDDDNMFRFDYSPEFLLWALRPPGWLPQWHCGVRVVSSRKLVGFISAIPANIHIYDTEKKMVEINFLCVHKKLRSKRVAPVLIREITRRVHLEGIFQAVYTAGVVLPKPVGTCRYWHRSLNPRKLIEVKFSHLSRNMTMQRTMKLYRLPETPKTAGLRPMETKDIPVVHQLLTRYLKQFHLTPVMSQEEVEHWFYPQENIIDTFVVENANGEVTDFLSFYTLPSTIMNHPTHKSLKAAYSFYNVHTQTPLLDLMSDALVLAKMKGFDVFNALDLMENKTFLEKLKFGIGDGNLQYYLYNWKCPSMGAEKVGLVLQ

PvNMT = target: T2, PvNMT (Plasmodium vivax, UniProt A5K1A2); assay: biochemical; format: biochemical
T2 construct: Gly-Pro stays on the protein after cleavage) (N, cleaved yes); host or cells: E. coli Rosetta 2 (DE3) pRARE
T2 sequence (A5K1A2 entry or part of it): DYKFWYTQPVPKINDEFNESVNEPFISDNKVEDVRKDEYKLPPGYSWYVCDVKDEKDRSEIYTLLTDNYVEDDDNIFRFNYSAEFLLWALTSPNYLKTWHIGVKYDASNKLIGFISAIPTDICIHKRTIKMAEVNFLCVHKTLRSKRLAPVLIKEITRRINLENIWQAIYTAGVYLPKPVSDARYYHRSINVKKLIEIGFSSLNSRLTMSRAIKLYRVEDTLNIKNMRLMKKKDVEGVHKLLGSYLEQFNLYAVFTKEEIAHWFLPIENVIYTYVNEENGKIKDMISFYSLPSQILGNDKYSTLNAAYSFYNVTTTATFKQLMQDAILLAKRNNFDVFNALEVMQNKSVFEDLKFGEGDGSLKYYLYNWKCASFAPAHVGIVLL
From the text: NMT activity was indirectly measured through the detection of free CoA by the thiol-reactive probe 7-diethylamino-3-(4′-maleimidylphenyl)-4-methylcoumarin (CPM).
This study aimed to identify NMT is with high selectivity for the P. vivax enzyme compared with human NMTs and high potency against the different stages of the P. vivax parasite. For this purpose, a structure-guided approach was applied using previously reported NMT inhibitors as scaffolds to develop a new generation of PvNMT-targeting compounds. The NMT activity of these inhibitors was first measured using biochemical assays through the detection of free CoA by the thiol-reactive probe 7-diethylamino-3-(4′-maleimidylphenyl)-4-methylcoumarin (CPM). Their antiparasitic activity were further evaluated by measuring blood-stage parasite load and inhibition of P. vivax liver-stage schizont and hypnozoite infection. […] Cytotoxicity was assessed in the human hepatoma HepG2 cell line. Synchronized P. falciparum NF54 ring-stage parasites were used for measuring blood-stage parasite load. […] In vitro experiments were repeated at least twice. A single concentration of each inhibitor was initially used to evaluate the inhibition of P. vivax liver stage schizont and hypnozoite infection, followed by the determination of the dose-response relationship.
To measure the activity of the purified PvNMT an assay was adapted from the literature. […] Working stock solutions were made fresh adding DMSO for final concentrations of either 1% or 5% DMSO. […] The plate was incubated for 30 min at room temperature. The enzymatic reaction was initiated by adding 50 μL of reaction substrate containing 10 µM myrCoA and PfARF, as well as 8 μM CPM. Fluorescent readings were taken on a Spectra M2 plate reader (Molecular Devices) with excitation at 385 nm and emission at 485 nm. Fluorescent intensity was measured continuously in one-minute intervals for 45 minutes. Background fluorescence and noise were determined by replacing each constituent of the reaction individually with assay buffer containing 1% DMSO and values were deducted from experimental samples. The enzymatic reactions were set up with varying pHs (6.0-8.5) of the assay buffer to determine optimal reaction conditions with minimal background and off target reactions. In lieu of compound, 10 μL of 10% DMSO/H2O was added to each well. Fluorescence signal was obtained continuously for 45 min. […] IC50 calculations were calculated using Prism (GraphPad Software, Inc).

[3] = HepG2 cytotoxicity assay (live/dead staining); format: cell-based, human; details: human
Experimental: (§1) Therefore, the cytotoxicity of the compounds was assessed in the human hepatoma HepG2 cell line. The compounds with PvNMT to HsNMT selectivity index above 20 were shortlisted for further screening.

P. falciparum = details: background; read-out: EC50 in a P. falciparum growth assay; cited from earlier work
Plasmodium NMT = details: background, cited from earlier work
HepG2 cells = assay: HepG2 cytotoxicity assay (live/dead staining); format: cell-based, human; details: positive control, 10-20 μM
Experimental: as §1

[4] = Table 1, mean values of two or more determinations

SMILES	IC50 (HsNMT1; Table 2) [nM]	IC50 (PvNMT; Table 2) [nM]	SI** (PvNMT; Table 2, HsNMT IC50/PvNMT IC50)	also measured
Cc1n[nH]c(C)c1CCOc1cc(F)ccc1-c1ccnc(N2CCNCC2)c1 [Compound 12q, 1-(4-(2-(2-(3,5-dimetyl-1H-pyrazol-4-yl)ethoxy)-4-fluorophenyl)piridin-2-yl)piperazine]				IC50 [1]: 380 nM; IC50 [2]: 2.2 to 3.5 µM; IC50 (P. vivax hypnozoites): 4400 nM; IC50 (HsNMT1; [4]): 1630 nM; SI** (PvNMT; Table 1, enzyme selectivity calculated as HsNMT IC50/PvNMT IC50): 22; IC50 (PvNMT; [4]): 73 nM; IC50 at 48 h [3]: > 20000 nM
Cc1nn(C)c(C)c1CCOc1cccnc1-c1cccc(OCCN(C)C)c1 [Compound 26a, N,N-dimethyl-2-(3-(3-(2-(1,3,5-trimethyl-1H-pyrazol-4-yl)ethoxy)pyridin-2-yl)phenoxy)-ethan-1-amine]	> 40000	266	153.8	
Cc1nn(C)c(C)c1CCOc1ccccc1-c1cccc(OCCN(C)C)c1 [Compound 26b, N,N-dimethyl-2-((2′-(2-(1,3,5-trimethyl-1H-pyrazol-4-yl)ethoxy)-[1,1′-biphenyl]-3-yl)oxy)-ethan-1-amine]	9850	83.2	118.4	
Cc1nn(C)c(C)c1CCOc1cc(F)ccc1-c1cccc(OCCN(C)C)c1 [Compound 26c, 2-((4′-fluoro-2′-(2-(1,3,5-trimethyl-1H-pyrazol-4-yl)ethoxy)-[1,1′-biphenyl]-3-yl)oxy)-N,N-dimethylethan-1-amine]	4790	29.4	162.3	
CN(C)CCOc1cccc(-c2ccc(F)cc2OCCc2cccnc2)c1 [Compound 26f, 2-((4′-fluoro-2′-(2-(pyridin-3-yl)ethoxy)-[1,1′-biphenyl]-3-yl)oxy)-N,N-dimethylethan-1-amine]	> 40000	622	62.3	
Cc1n[nH]c(C)c1CCOc1cc(F)ccc1-c1cccc(OCCN(C)C)c1 [Compound 26i, 2-((2′-(2-(3,5-dimethyl-1H-pyrazol-4-yl)ethoxy)-4′-fluoro-[1,1′-biphenyl]-3-yl)oxy)-N,N-dimethylethan-1-amine]	13900	242	57	
Cc1nn(C)c(C)c1CCOc1ccc2ccccc2c1-c1ccnc(N2CCNCC2)c1 [Compound 30a, 1-(4-(2-(2-(1,3,5-trimethyl-1H-pyrazol-4-yl)ethoxy)naphthalen-1-yl)pyridin-2-yl)piperazine]	24000	89	269.8	IC50 [1]: 440 nM; IC50 [2]: 2.9 to 4.3 µM; IC50 (P. vivax hypnozoites): 2100 nM; selectivity index (SI) (PvNMT; ratio of IC50 values for HsNMT1 and PvNMT): 269; IC50 at 48 h [3]: > 20000 nM
c1cncc(CCOc2ccc3ccccc3c2-c2ccnc(N3CCNCC3)c2)c1 [Compound 30c, 1-(4-(2-(2-(pyridin-3-yl)ethoxy)naphthalen-1-yl)pyridin-2-yl)piperazine]	> 40000	248	161	inhibition at 20 µM (P. vivax hypnozoites; 20 μM): > 75%
Cc1nn(C)c(C)c1NS(=O)(=O)c1c(Cl)cc(-c2ccnc(N3CCNCC3)c2)cc1Cl [DDD85646]				EC50 (P. falciparum): 69 nM
Cc1nn(C)c(C)c1CCOc1cc(F)ccc1-c1ccc2c(c1)c(CN(C)C)nn2C [IMP-1002]				IC50 (Plasmodium NMT; previously developed NMT inhibitors): 3 nM; selectivity over HsNMT1/2 (Plasmodium NMT): up to fourfold; EC50 (P. falciparum): 10 nM
CN[C@@H]1C[C@H]2O[C@@](C)([C@@H]1OC)n1c3ccccc3c3c4c(c5c6ccccc6n2c5c31)C(=O)NC4 [Staurosporine, reference compound]				effect on HepG2 cell viability (HepG2 cells): reduced the cell viability
